Laboratory results taken from patent publication EP4806900A2, “RAS INHIBITORS” (Revolution Medicines, Inc., priority 2019, dated 2021).

System: NCI-H358 (K-Ras G12C)
Experiment: CellTiter-Glo cell viability assay, NCI-H358
Assay type: cell-based, human
Conditions: Table 5; read-out: H358 Cell Viability assay data (K-Ras G12C, IC50)
How it was run: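 Compounds dispensed directly onto plated NCI-H358 cells; plates equilibrated to room temperature on day 5 before luminescence read-out. Signal normalized to mean DMSO control (%) and fitted by four-parameter logistic.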

Structure (SMILES)	IC50 [nM]
CCn1c(-c2ccccc2COC)c2c3cc(ccc31)-c1cc(O)cc(c1)C[C@H](NC(=O)[C@H](C(C)C)N(C)C(=O)[C@H]1CCN(C(=O)/C=C/CN(C)C)C1)C(=O)N1CCC[C@H](N1)C(=O)OCC(C)(C)C2 [Compound A79]	10 to 100
C=CC(=O)N1CC[C@H](C(=O)N(C)[C@H](C(=O)N[C@H]2Cc3cc(O)cc(c3)-c3ccc4c(c3)c(c(-c3c(CCOC)cccc3OC)n4CC)CC(C)(C)COC(=O)[C@@H]3CCCN(N3)C2=O)C(C)C)C1 [Compound A80]	100 to 1000
C=CC(=O)N1CC[C@H](C(=O)N(C)[C@H](C(=O)N[C@H]2Cc3cc(O)cc(c3)-c3ccc4c(c3)c(c(-c3cc(F)cnc3COC)n4CC)CC(C)(C)COC(=O)[C@@H]3CCCN(N3)C2=O)C(C)C)C1 [Compound A82]	10 to 100
C=CC(=O)N1CC[C@H](C(=O)N(C)[C@H](C(=O)N[C@H]2Cc3cc(O)cc(c3)-c3ccc4c(c3)c(c(-c3cncc(COC)c3)n4CC)CC(C)(C)COC(=O)[C@@H]3CCCN(N3)C2=O)C(C)C)C1 [Compound A83]	10 to 100
C=CC(=O)N1CC[C@H](C(=O)N(C)[C@H](C(=O)N[C@H]2Cc3cc(O)cc(c3)-c3ccc4c(c3)c(c(-c3ncccc3COC)n4CC)CC(C)(C)COC(=O)[C@@H]3CCCN(N3)C2=O)C(C)C)C1 [Compound A84]	100 to 1000
C=CC(=O)N1CC[C@H](C(=O)N(C)[C@H](C(=O)N[C@H]2Cc3cc(O)cc(c3)-c3ccc4c(c3)c(c(-c3nccnc3COC)n4CC)CC(C)(C)COC(=O)[C@@H]3CCCN(N3)C2=O)C(C)C)C1 [Compound A85]	100 to 1000
C=CC(=O)N1CC[C@H](C(=O)N(C)[C@H](C(=O)N[C@H]2Cc3cc(O)cc(c3)-c3ccc4c(c3)c(c(-c3ccncc3)n4C(C)(C)C#N)CC(C)(C)COC(=O)[C@@H]3CCCN(N3)C2=O)C(C)C)C1 [Compound A86]	10 to 100
C=CC(=O)N1CC[C@H](C(=O)N(C)[C@H](C(=O)N[C@H]2Cc3cc(O)cc(c3)-c3ccc4c(c3)c(c(-c3cccnc3CN(C)C)n4CC)CC(C)(C)COC(=O)[C@@H]3CCCN(N3)C2=O)C(C)C)C1 [Compound A92]	100 to 1000

Next, values leading:

IC50 [nM]	Structure (SMILES)
10 to 100	CCn1c(-c2cnccc2COC)c2c3cc(ccc31)-c1cc(O)cc(c1)C[C@H](NC(=O)[C@H](C(C)C)N(C)C(=O)[C@H]1CCN(C(=O)/C=C/CN(C)C)C1)C(=O)N1CCC[C@H](N1)C(=O)OCC(C)(C)C2 [Compound A87]
< 10	CCn1c(-c2cnccc2COC)c2c3cc(ccc31)-c1cc(O)cc(c1)C[C@H](NC(=O)[C@H](C(C)C)N(C)C(=O)[C@H]1CCN(C(=O)C#CCN(C)C)C1)C(=O)N1CCC[C@H](N1)C(=O)OCC(C)(C)C2 [Compound A88]
10 to 100	C=CC(=O)N1CC[C@H](C(=O)N(C)[C@H](C(=O)N[C@H]2Cc3cc(O)cc(c3)-c3ccc4c(c3)c(c(-c3ccc(N5CCN(C)CC5)nc3)n4CC)CC(C)(C)COC(=O)[C@@H]3CCCN(N3)C2=O)C(C)C)C1 [Compound A89, (2S)-N-[(8S,14S)-22-ethyl-4-hydroxy-18,18-dimethyl-21-[6-(4-methylpiperazin-1-yl)pyridin-3-yl]-9,15-dioxo-16-oxa-10,22,28-triazapentacyclo[18.5.2.1^2,^6.1^10,^14.0^23,^27]nonacosa-1(26),2,4,6(29),20,23(27),24-heptaen-8-yl]-3-methyl-2-{N-methyl-1-[(3S)-1-(prop-2-enoyl)pyrrolidin-3-yl]formamido}butanamide]
> 1000	CCn1c(-c2ccccc2CN(C)C)c2c3cc(ccc31)-c1cc(O)cc(c1)C[C@H](NC(=O)[C@H](C(C)C)N(C)C(=O)c1nc(NC(=O)/C=C/CN(C)C)cs1)C(=O)N1CCC[C@H](N1)C(=O)OCC(C)(C)C2 [Compound A90]
< 10	C=CC(=O)N1CC[C@H](C(=O)N(C)[C@H](C(=O)N[C@H]2Cc3cc(O)cc(c3)-c3ccc4c(c3)c(c(-c3cnccc3COC)n4CC)CC(C)(C)COC(=O)[C@@H]3CCCN(N3)C2=O)C(C)C)C1 [Compound A91]
10 to 100	C=CC(=O)N1CC[C@H](C(=O)N(C)[C@H](C(=O)N[C@H]2Cc3cc(O)cc(c3)-c3ccc4c(c3)c(c(-c3cccnc3COC)n4CC#N)CC(C)(C)COC(=O)[C@@H]3CCCN(N3)C2=O)C(C)C)C1 [Compound A93]
